Laboratory results taken from article PMC6335623, “A computationally designed binding mode flip leads to a novel class of potent tri-vector cyclophilin inhibitors” (Chemical Science, 2018).
Like-named read-outs stand apart in the source and are kept apart here. Each block holds one molecule with its values, some of them ahead of it.

Columns and labels:
[1] = target: T1, CypA (Homo sapiens, UniProt P62937); test: Isothermal titration calorimetry (ITC), ester series, direct titration; settings: 25 °C, 50 mM phosphate buffer pH 6.5; single experiments; uncertainties from fit to one-site binding model; n.b. = no binding observed at the maximum concentration tested
T1 construct: His-tag (TEV-cleavable) (cleaved yes); made in house; host or cells: E. coli C41 BL21(DE3) ('C41 BL21(DH3)' [sic]); plasmid from the Edinburgh Protein Production Facility
T1 sequence (P62937 whole entry): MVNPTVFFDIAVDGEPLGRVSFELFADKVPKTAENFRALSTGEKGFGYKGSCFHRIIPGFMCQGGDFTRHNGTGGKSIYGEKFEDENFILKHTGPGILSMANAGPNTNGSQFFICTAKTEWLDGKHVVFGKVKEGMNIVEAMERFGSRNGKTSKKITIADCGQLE
Experimental: The molecular weights of HisCypA and free CypA are 20.893 and 18.070 kDa, respectively. Protein concentration was determined by measuring the absorbance at 280 nm and the extinction coefficients 14440 and 8480 M-1 cm-1, respectively.
Isothermal Titration Calorimetry (ITC)
ITC1 – Ester series: Instrument and experimental setup
All ITC experiments for the ester series compounds were carried out at 25 °C on a MicroCal Auto iTC200 (GE Healthcare) instrument. The buffer used in the titrations of the compounds belonging to the ester series (1 – 12) was 50 mM phosphate buffer, pH 6.5 and the concentration of DMSO was 2% v/v for all the compounds, unless otherwise stated in Table S1. Final compound solutions were heated to 65 °C and/or sonicated prior to the experiment. Each experiment consisted of an initial injection of 0.4 μL followed by nineteen 2 μL injections and in most of cases for these compounds, the “continue injections” protocol was used leaving the cell intact and performing a second series of titrations using the above protocol to achieve saturation. Control experiments were performed, where each compound was titrated into buffer and when small amount of heat was detected due to heat of dilution, it was subtracted when processing the data using a linear fit method. A more detailed setup for each experiment is depicted in Table S6. In all cases the first injection was omitted from the data processing. All data were analysed using the MicroCal PEAQ-ITC […]
(Wiseman constant) is very small, a fixed stoichiometry to 1 was applied during the non-linear regression of […]
the duration of the experiment.

[2] = test system: MDA-MB-231_NLG cells; test: cells; assay type: cell-based; settings: 120 hours treatment
Experimental: The tumorigenic, breast, epithelial adenocarcinoma cell lines MDA-MB-231_NLG and the normal, lung fibroblast cell line, IMR90 were cultured as adherent monolayers in DMEM with 10% volume FBS in an atmosphere with 5% CO2 and 95% humidity and were routinely sub-cultured upon reaching 80-90% confluence. MDA-MB-231_NLG cells are a variant of MDA-MB-231 cells, expressing nuclear-restricted green fluorescent protein; they were produced by stable transduction of MDA-MB-231 cells with NucLight Green lentivirus (Essen Bioscience), following the manufacturer’s protocol.
Image-based Cell Viability Assays
Cells were seeded at a density of 500 cells per well in cell culture medium in 384-well cell culture plates and allowed to adhere overnight (about 16 hours), incubated in a humidified atmosphere with 5% CO2.
Subsequently, cell culture medium was refreshed, supplemented with Draq 7 (3µM final concentration) and test compound at the indicated concentrations with three wells being treated for each condition tested. Cells were then returned to the cell culture incubator and imaged with a 10X objective every 3 hours for 120 hours using an IncuCyte ZOOM microscope from Essen Bioscience.
Using the IncuCyte ZOOM software, custom image analysis procedures were developed and applied for each cell line to determine cell confluency, cell number and number of dead cells over the time course of the experiment. Phase contrast was used to determine relative area of each image occupied by cells (confluency), while green nuclear counts were used to determine number of MDA-MB-231_NLG cells and red nuclear counts were used to determine number of dead (Draq7-positive) cells. […]
growth inhibition) being determined by fitting non-linear regression curves to the data and extrapolating the required values using GraphPad Prism 6. Statistical analyses in cell viability assays to compare the effect of compound treatment to treatment with vehicle were performed using GraphPad Prism 6 (2-way ANOVA with Bonferroni correction post hoc).

[3] = target: T2, His-CypB (Homo sapiens, UniProt P23284); test: biochemical; assay type: binding; settings: 25 °C, mean ± 1σ from three repeat experiments; read-out: Kd (SPR) CypB
T2 construct: made in house; host or cells: E. coli C41 BL21(DE3) ('C41 BL21(DH3)' [sic]); plasmid from the Edinburgh Protein Production Facility
T2 sequence (P23284 34-216): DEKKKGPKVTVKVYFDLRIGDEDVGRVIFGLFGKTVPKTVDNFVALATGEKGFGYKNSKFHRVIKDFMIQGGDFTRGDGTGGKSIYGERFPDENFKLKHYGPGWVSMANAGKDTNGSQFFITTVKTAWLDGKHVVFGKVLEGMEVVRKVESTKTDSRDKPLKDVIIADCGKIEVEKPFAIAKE
Experimental: (§1) injection protocol (Fig. S9B). […]
(§2) using the same instrument parameters was performed (Fig. S9A).
(§3) Surface Plasmon Resonance (SPR)
(§4) SPR1 – SPR equipment and reagents
(§5) SPR measurements were performed on a BIAcore T200 instrument (GE Healthcare). Ni2+- nitrilotriacetic acid (NTA) sensor chips, 1-ethyl-3-(3- diaminopropyl) carbodiimide hydrochloride (EDC) and Nhydroxysuccinimide (NHS) were purchased from GE Healthcare.
(§6) SPR2 – Immobilization and covalent stabilizations of His-Cyps
(§7) Pure His-cyclophilins were immobilized and covalently stabilized on the NTA sensor chip according to the protocol described [Wear et al., 2017, FEBS OpenBio], using 200 nM concentrations of each protein, in Running Buffer (PBS, pH 7.4; 0.05% surfactant P20, 2% v/v ethanol; 50 µM EDTA), at 30 µl min-1 with 60 second contact times on the activated NTA surfaces.
(1 picture or pasted object on this page, not shown here) […]
Buffer (PBS, pH 7.4, 50 µM mM EDTA; 0.05 % v/v surfactant P20; 2 % v/ v ethanol), were injected over the sensor surface, at 100 µl.min -1 with a 90 s contact time and a 90 s dissociation time. […] The apparent on-rate (k+) and off-rate (k-) constants and the equilibrium dissociation constant (K d) were calculated from reference corrected sensorgrams by global fitting of a 1:1 binding model, including a mass transport term, using analysis software ( v.2.02, GE Healthcare) provided with the BIAcore T200 […]

[4] = target: T3, His-CypA (Homo sapiens, UniProt P62937); test: Surface plasmon resonance (SPR) kinetic titration, BIAcore T200; assay type: binding
T3 construct: made in house; host or cells: E. coli C41 BL21(DE3) ('C41 BL21(DH3)' [sic]); plasmid from the Edinburgh Protein Production Facility
T3 sequence (P62937 whole entry): as the sequence (P62937 whole entry) above
Experimental: as §1, §2, §3, §4, §5, §6, §7
(§8) (1 picture or pasted object on this page, not shown here)
(§9) Specific surface protein activity was assayed by passing saturating […]
(§10) SPR3 – Kinetic titration experiments
(§11) Buffer (PBS, pH 7.4, 50 µM mM EDTA; 0.05 % v/v surfactant P20; 2 % v/ v ethanol), were injected over the sensor surface, at 100 µl.min -1 with a 90 s contact time and a 90 s dissociation time. The sensor surface was regenerated between experiments by dissociating any formed complex in running buffer for at least 1,200 seconds. The apparent on-rate (k+) and off-rate (k-) constants and the equilibrium dissociation constant (K d) were calculated from reference corrected sensorgrams by global fitting of a 1:1 binding model, including a mass transport term, using analysis software ( v.2.02, GE Healthcare) provided with the BIAcore T200 […]
(§12) Buffer (PBS, pH 7.4, 50 µM mM EDTA; 0.05 % v/v surfactant P20; 2 % v/v ethanol), were injected over the sensor surface, at 100 µl.min-1 with a 15 s contact time and a 600 s dissociation time. The sensor surface was […]

[5] = target: T4, His-CypD (Homo sapiens, UniProt P30405); test: as above; assay type: binding; settings: 25 °C, mean ± 1σ from three repeat experiments
T4 construct: made in house; host or cells: E. coli C41 BL21(DE3) ('C41 BL21(DH3)' [sic]); plasmid from the Edinburgh Protein Production Facility
T4 sequence (P30405 30-207): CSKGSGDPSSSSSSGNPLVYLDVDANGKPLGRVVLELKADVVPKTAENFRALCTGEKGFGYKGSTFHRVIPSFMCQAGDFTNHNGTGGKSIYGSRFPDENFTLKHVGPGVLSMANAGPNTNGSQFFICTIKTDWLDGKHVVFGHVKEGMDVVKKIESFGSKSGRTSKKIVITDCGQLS
Experimental: as §1, §2, §3, §4, §5, §6, §7, §8, §9, §10, §11, §12

- Kd [1]: 266 ± 3 µM
SMILES: CCCN(Cc1ccc(N)cc1)C(=O)NCC(=O)OCC [Compound 4]

- CypA Kd (ITC) [1]: n.b and n.b. and inactive
SMILES: CCOC(=O)CNC(=O)N(Cc1ccc(N)cc1)C1CCNCC1.Cl.Cl [Compound 11]

SMILES: CCOC(=O)CNC(=O)N(Cc1ccc(N)cc1)C(C)C.Cl [Compound 3]
- CypA Kd (ITC) [1]: n.b and n.b. and inactive

- GI50, growth inhibition ([2]; mean with 95% CI [lower limit, upper limit], three independent experiments): inactive
SMILES: Cl.Cn1cc(CN(Cc2ccc(N)cc2)C(=O)NCC(=O)N2CCCC2c2ccccc2Br)nn1 (stereo not drawn) [Compound 14]

- CypA Kd (ITC) [1]: very weak binders
- Kd [1]: 993 ± 20 µM
SMILES: CCOC(=O)CNC(=O)N(CC#N)Cc1ccc(N)cc1.Cl [Compound 6]

- CypA Kd (ITC) [1]: n.b and n.b. and very weak binders
SMILES: CCOC(=O)CNC(=O)N(Cc1ccc(N)cc1)CC1CC1.Cl [Compound 7]

SMILES: CCOC(=O)Cn1cc(CN(Cc2ccc(N)cc2)C(=O)NCC(=O)N2CCCC2c2ccccc2Br)nn1 (stereo not drawn) [Compound 16]
- Kd [3]: 1.9 ± 0.9 µM
- Kd [4]: 4.3 ± 1 µM
- Kd [5]: 1 ± 0.4 µM

SMILES: C#CCN(Cc1ccc(N)cc1)C(=O)NCC(=O)N1CCCC1c1ccccc1Br (stereo not drawn) [Compound 13]
- Kd [3]: 1.4 ± 0.4 µM
- Kd ([4]; 25 °C, mean ± 1σ from three repeat experiments, read-out: Kd (SPR) CypA): 3.2 ± 1.3 µM
- Kd [5]: 0.2 ± 0.1 µM
- cell death (dead cells) [2]: Negligible cell death
- GI50 ([2]; Homo sapiens, mean with 95% CI [lower limit, upper limit], three independent experiments, read-out: GI50, growth inhibition): 5.13 µM
